Tests used:
[1] = tested on: NB(TU)1-10 (Neuroblastoma); assay: combination Emax (second highest fraction inhibited in the dose matrix, 72 h); higher = more inhibition; extreme values may be limits of the assay
Procedure, shortened: (§1)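 Cell lines in DMEM/F12 or RPMI with 10% FBS were plated in 1536-well plates, held 24 hours at 37°C, 5% CO2, then given two-drug dose matrices for 72 hours (DMSO typically 0.2%). Viability was read by CellTiter-Glo 2.0 luminescence and scaled as inhibition from 0 (vehicle wells) to 1 (blank wells). Combination Emax is the second-highest inhibition in the matrix; Bliss excess is observed combination effect minus expected EA + EB − EA·EB, EA and EB being single-agent effects.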

[2] = tested on: NCI-H211 (Small Cell Lung Carcinoma); assay: as above
Procedure, shortened: as §1

[3] = tested on: BB49-HNC (Head and Neck Carcinoma); assay: as above
Procedure, shortened: as §1

[4] = tested on: LS-513 (Colorectal Carcinoma); assay: Bliss excess, mean over the matrix (fraction); higher = more synergy
Procedure, shortened: as §1

[5] = tested on: NB(TU)1-10 (Neuroblastoma); assay: as above
Procedure, shortened: as §1

[6] = tested on: NCI-H211 (Small Cell Lung Carcinoma); assay: as above
Procedure, shortened: as §1

[7] = tested on: BB49-HNC (Head and Neck Carcinoma); assay: as above
Procedure, shortened: as §1

[8] = tested on: U-266 (Plasma Cell Myeloma); assay: as above
Procedure, shortened: as §1
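Throughout, for Bliss excess, mean over the matrix: after 72 h of two-drug dosing.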

Compound	combination Emax [1]	combination Emax [2]	combination Emax [3]	Bliss excess [4]	Bliss excess [5]	Bliss excess [6]	Bliss excess [7]	Bliss excess [8]
CN(C)CCCOc1ccc(-c2ccc3ncc4c(c3c2)n(C2CCOCC2)c(=O)n4C)cn1 [AZD0156] + O=C(c1cc(Cc2n[nH]c(=O)c3ccccc23)ccc1F)N1CCN(C(=O)C2CC2)CC1 [Olaparib] (first compound max 3 µM, partner max 3 µM)	0.356	0.598	0.598	0.0071	-0.037	0.0397	0.165	-0.106
C=CCn1c(=O)c2cnc(Nc3ccc(N4CCN(C)CC4)cc3)nc2n1-c1cccc(C(C)(C)O)n1 [AZD1775] + C1CN(CCC1(C(=O)N[C@@H](CCO)C2=CC=C(C=C2)Cl)N)C3=NC=NC4=C3C=CN4 [Capivasertib] (first compound max 3 µM, partner max 3 µM)	0.583	0.901	0.936	-0.0514	-0.0584	-0.0643	-0.0204	-0.0704
COc1cc2c(cc1OCCCCCOc1cc3c(cc1OC)C(=O)N1C=C(C)C[C@H]1C=N3)N=C[C@@H]1CC(C)=CN1C2=O [SG3199] + O=C(c1cc(Cc2n[nH]c(=O)c3ccccc23)ccc1F)N1CCN(C(=O)C2CC2)CC1 [Olaparib] (first compound max 0.001 µM, 7x7, partner max 10 µM)	0.187			-0.0372	-0.0149			-0.0601
CCc1c2c(nc3ccc(O)cc13)-c1cc3c(c(=O)n1C2)COC(=O)[C@]3(O)CC [SN-38] + CN(C)CCCOc1ccc(-c2ccc3ncc4c(c3c2)n(C2CCOCC2)c(=O)n4C)cn1 [AZD0156] (first compound max 0.3 µM, 7x7, partner max 1 µM)	0.805			-0.0878	-0.0787			-0.0099
CCc1c2c(nc3ccc(O)cc13)-c1cc3c(c(=O)n1C2)COC(=O)[C@]3(O)CC [SN-38] + O=C(c1cc(Cc2n[nH]c(=O)c3ccccc23)ccc1F)N1CCN(C(=O)C2CC2)CC1 [Olaparib] (first compound max 0.3 µM, 7x7, partner max 10 µM)	0.805			0.0731	0.0289			0.0526

— the supplement of paper PMC11061612
